In the oligonucleotide strings, read from the 5' end, every base follows the letter of its sugar. An asterisk marks phosphorothioate; unmarked linkages are phosphodiester. Other units and linkages are bracketed, terminal groups are in braces. A string of capitals states the bases alone. {ET-GalNAc-T2CO} = code of the source, not defined here; {NH2C12} = code of the source, not defined here; {NHC6} = code of the source, not defined here; m = 2'-O-methyl; f = 2'-fluoro
Tested on: hsHAO1 mRNA
Assay: Dose-response of hsHAO1 targeting GalNAc-siRNAs in primary human hepatocytes, gymnotic free uptake, bDNA assay
Type: cell-based
Conditions: PHHs
Protocol: HepG2 cells were supplied by American Tissue Culture Collection (ATCC) (HB-8065, Lot #: 63176294) and cultured in ATCC-formulated Eagle's Minimum Essential Medium supplemented to contain 10% fetal calf serum (FCS). Primary human hepatocytes (PHHs) were sourced from Primacyt (Schwerin, Germany) (Lot #: CyHuf19009HEc). Cells are derived from a […] by explant technique. All cells used in this study were cultured at 37° C. in an atmosphere with 5% CO2 in a humidified incubator.
Dose response analysis in PHHs was done by direct incubation of cells in a gymnotic, free uptake setting starting with 1.5 μM highest final siRNA concentration, followed by 500 nM and from there on going serially down in twofold dilution steps.
Control wells were transfected into HepG2 cells or directly incubated with primary human hepatocytes at the highest test siRNA concentrations studied on the corresponding plate. All control siRNAs included in the different project phases next to mock treatment of cells are summarized and listed in Table 2. For each siRNA and control, at least four wells were transfected/directly incubated in parallel, and individual data points were collected from each well.
After 24 h of incubation with siRNA post-transfection, media was removed and HepG2 cells were lysed in Lysis Mixture (1 volume of lysis buffer plus 2 volumes of nuclease-free water) and then incubated at 53° C. for at least 45 minutes. In the case of PHHs, plating media was removed 5 h post treatment of cells followed by addition of 50 μl of complete maintenance medium per well. Media was exchanged in that way every 24 h up to a total incubation period of 72 h. At either 4 h or 72 h time point, cell culture supernatant was removed followed by addition of 200 μl of Lysis Mixture supplemented with 1:1000 v/v of Proteinase K.
The branched DNA (bDNA) assay was performed according to manufacturer's instructions. Luminescence was read using a 1420 Luminescence Counter (WALLAC VICTOR Light, Perkin Elmer, Rodgau-JMgesheim, Germany) following 30 minutes incubation in the presence of substrate in the dark. For each well, the on-target mRNA levels were normalized to the hsGAPDH mRNA levels. The activity of any siRNA was expressed as percent on-target mRNA concentration (normalized to hsGAPDH mRNA) in treated cells, relative to the mean on-target mRNA concentration (normalized to hsGAPDH mRNA) across control wells.
Following the identification of a suitable batch (CyHuf19009) of primary human hepatocytes (PHHs), a gymnotic, free uptake analysis was performed of hsHAO1 targeting GalNAc-siRNAs, listed in Table 1. The highest tested final siRNA concentration was 1.5 μM, followed by 500 nM, going down in eight two-fold serial dilution steps to the lowest final siRNA concentration of 1.95 nM. The experiments ended at 4 h and 72 h post direct incubation of PHH cells.

| Substance | Max. Inhib. (4 h incubation) | IC20 (72 h incubation) | IC50 (72 h incubation) | Max. Inhib. (72 h incubation) |
| --- | --- | --- | --- | --- |
| ECX008: hsHAO1 GalNAc-siRNA, 3′-GalNAc T2a alternating, same sequences as ETX008, lower purity (sense fG*mA*fCmUfUmUfCmAfUmCfCmUfGmGfAmAfAmUfAmUfA-{NHC6}-{ET-GalNAc-T2CO}; antisense mU*fA*mUfAmUfUmUfCmCfAmGfGmAfUmGfAmAfAmGfUmC*fC*mA; further chemistry not given here) | 2.0% | 4.9 nM | 260 nM | 58.1% |
| ETX002: hsHAO1 GalNAc-siRNA, 5′-GalNAc T2b inverted abasic; sense X91409, antisense X38483; linker + ligand as FIG. 21 (sense GACUUUCAUCCUGGAAAUAUA; antisense UAUAUUUCCAGGAUGAAAGUCCA; 5'-GalNAc, inverted abasic, 2'-F/OMe, PS; misc_feature 1..21 modified siRNA; misc_feature 1..23 modified siRNA) | 7.2% | 23.9 nM | – | 44.3% |
| ETX004: hsHAO1 GalNAc-siRNA, 5′-GalNAc T2b alternating; sense X91412, antisense X91398; linker + ligand as FIG. 21 (sense {ET-GalNAc-T2CO}-{NH2C12}-fGmAfCmUfUmUfCmAfUmCfCmUfGmGfAmAfAmUfA*mU*fA; antisense mU*fA*mUfAmUfUmUfCmCfAmGfGmAfUmGfAmAfAmGfUmC*fC*mA) | −2.3% | 2.8 nM | – | 35.5% |

— US20230310486A1, “CONJUGATED OLIGONUCLEOTIDE COMPOUNDS, METHODS OF MAKING AND USES THEREOF” (E-Therapeutics PLC, priority 2021, published 2023)
